The CheMixHub viscosity set
± gives the uncertainty stated by the source.

Experiment: xn = mol fraction of the nth substance listed

NC=O + C1COCCO1
101 kPa
Conditions | viscosity [mPa·s]
298.15 K, x1 = 0.2556 | 1.492 ± 0.019
298.15 K, x1 = 0.433 | 1.849 ± 0.023
298.15 K, x1 = 0.5602 | 2.219 ± 0.027
298.15 K, x1 = 0.6657 | 2.564 ± 0.03
298.15 K, x1 = 0.7461 | 2.863 ± 0.034
298.15 K, x1 = 0.8157 | 3.094 ± 0.036
298.15 K, x1 = 0.8733 | 3.26 ± 0.037
298.15 K, x1 = 0.9221 | 3.361 ± 0.038
298.15 K, x1 = 0.9643 | 3.363 ± 0.037
313.15 K, x1 = 0.2695 | 1.138 ± 0.015
313.15 K, x1 = 0.4572 | 1.383 ± 0.017
313.15 K, x1 = 0.58 | 1.621 ± 0.02
313.15 K, x1 = 0.6792 | 1.846 ± 0.022
313.15 K, x1 = 0.7583 | 2.039 ± 0.024
313.15 K, x1 = 0.8242 | 2.193 ± 0.025
313.15 K, x1 = 0.8775 | 2.294 ± 0.025
313.15 K, x1 = 0.9226 | 2.338 ± 0.026
313.15 K, x1 = 0.9638 | 2.362 ± 0.025

OCCCO + C1COCCO1
viscosity [mPa·s], 100 kPa
Conditions | x2 = 0.0996 | x2 = 0.2019 | x2 = 0.2972 | x2 = 0.3986 | x2 = 0.4989 | x2 = 0.5998 | x2 = 0.6951 | x2 = 0.8062 | x2 = 0.9159
293.15 K | 38.51 ± 7.7 | 26.36 ± 5.3 | 17.15 ± 3.4 | 10.05 ± 2 | 5.655 ± 1.1 | 3.887 ± 0.78 | 2.715 ± 0.54 | 2.018 ± 0.4 | 1.288 ± 0.26
298.15 K | 29.32 ± 5.9 | 20.14 ± 4 | 12.96 ± 2.6 | 8.427 ± 1.7 | 4.847 ± 0.97 | 3.375 ± 0.68 | 2.402 ± 0.48 | 1.806 ± 0.36 | 1.145 ± 0.23
303.15 K | 23.39 ± 4.7 | 15.44 ± 3.1 | 10.21 ± 2 | 6.477 ± 1.3 | 4.086 ± 0.82 | 2.968 ± 0.59 | 2.14 ± 0.43 | 1.632 ± 0.33 | 1.053 ± 0.21

OCCCO + CC#N
viscosity [mPa·s], 100 kPa
Conditions | x2 = 0.1027 | x2 = 0.2001 | x2 = 0.3048 | x2 = 0.4057 | x2 = 0.5001 | x2 = 0.6001 | x2 = 0.6993 | x2 = 0.8002 | x2 = 0.8956
293.15 K | 31.4 ± 6.3 | 19.6 ± 3.9 | 11.4 ± 2.3 | 6.84 ± 1.4 | 4.12 ± 0.83 | 2.59 ± 0.52 | 1.59 ± 0.32 | 0.92 ± 0.18 | 0.58 ± 0.12
298.15 K | 24.7 ± 5 | 14.5 ± 2.9 | 8.12 ± 1.6 | 4.69 ± 0.94 | 2.89 ± 0.58 | 1.91 ± 0.38 | 1.23 ± 0.25 | 0.73 ± 0.15 | 0.47 ± 0.09
303.15 K | 19.4 ± 3.9 | 11.2 ± 2.2 | 5.78 ± 1.2 | 3.33 ± 0.67 | 2.21 ± 0.44 | 1.37 ± 0.27 | 0.89 ± 0.18 | 0.58 ± 0.12 | 0.39 ± 0.08

NC=O + CC(=O)N(C)C
viscosity [mPa·s], 101 kPa
Conditions | 298.15 K | 308.15 K | 318.15 K
x2 = 0.035 | 3.217 ± 0.14 | 2.532 ± 0.12 | 2.077 ± 0.096
x2 = 0.07 | 3.457 ± 0.15 | 2.677 ± 0.12 | 2.18 ± 0.1
x2 = 0.111 | 3.656 ± 0.16 | 2.847 ± 0.13 | 2.286 ± 0.11
x2 = 0.15 | 3.822 ± 0.17 | 2.95 ± 0.13 | 2.357 ± 0.11
x2 = 0.2053 | 3.966 ± 0.18 | 3.037 ± 0.14 | 2.416 ± 0.11
x2 = 0.2414 | 3.971 ± 0.18 | 3.057 ± 0.14 | 2.42 ± 0.11
x2 = 0.3009 | 3.932 ± 0.17 | 3.027 ± 0.14 | 2.389 ± 0.11
x2 = 0.3563 | 3.789 ± 0.17 | 2.92 ± 0.13 | 2.31 ± 0.11
x2 = 0.4177 | 3.537 ± 0.16 | 2.741 ± 0.12 | 2.16 ± 0.1
x2 = 0.458 | 3.338 ± 0.15 | 2.594 ± 0.12 | 2.076 ± 0.096
x2 = 0.5011 | 3.094 ± 0.14 | 2.43 ± 0.11 | 1.953 ± 0.091
x2 = 0.5474 | 2.826 ± 0.13 | 2.235 ± 0.1 | 1.81 ± 0.085
x2 = 0.5912 | – | 2.028 ± 0.094 | –
x2 = 0.5972 | 2.53 ± 0.12 | – | 1.65 ± 0.078
x2 = 0.65 | 2.251 ± 0.1 | 1.812 ± 0.085 | 1.505 ± 0.072
x2 = 0.7092 | 1.916 ± 0.089 | 1.579 ± 0.075 | 1.316 ± 0.063
x2 = 0.75 | 1.72 ± 0.081 | 1.441 ± 0.069 | 1.205 ± 0.059
x2 = 0.7948 | 1.54 ± 0.073 | 1.289 ± 0.062 | 1.096 ± 0.054
x2 = 0.891 | 1.21 ± 0.059 | 1.035 ± 0.051 | 0.901 ± 0.045

CN1CCC[C@H]1c1cccnc1 + CC(=O)O
viscosity [mPa·s], 101 kPa
Conditions | 298.15 K | 323.15 K
x1 = 0.1169 | 23.04 ± 0.64 | 7.777 ± 0.21
x1 = 0.1985 | 74.98 ± 2.1 | 18.12 ± 0.56
x1 = 0.2129 | 93.46 ± 2.7 | 20.8 ± 0.63
x1 = 0.2369 | 109.9 ± 3.4 | 21.63 ± 0.69
x1 = 0.2489 | 111.9 ± 3.5 | 22.09 ± 0.7
x1 = 0.2602 | 110.9 ± 3.5 | 21.72 ± 0.7
x1 = 0.2952 | 94.15 ± 2.8 | 19.47 ± 0.61
x1 = 0.3062 | 86.56 ± 2.5 | 18.65 ± 0.76
x1 = 0.3711 | 56.31 ± 1.5 | 13.21 ± 0.4
x1 = 0.47 | 24.1 ± 0.65 | 7.709 ± 0.22
x1 = 0.5888 | 15.2 ± 0.4 | 5.208 ± 0.14
x1 = 0.7306 | 8.751 ± 0.23 | 3.61 ± 0.098
x1 = 0.8435 | 7.072 ± 0.18 | 3.085 ± 0.083

NC=O + CC(=O)O
viscosity [mPa·s]
Conditions | 298.15 K | 303.15 K | 308.15 K | 313.15 K
101 kPa, x1 = 0.109 | 2.001 ± 0.062 | – | – | 1.462 ± 0.036
101 kPa, x1 = 0.2105 | 2.855 ± 0.11 | – | – | 2.029 ± 0.064
101 kPa, x1 = 0.3058 | 3.481 ± 0.15 | – | – | 2.361 ± 0.083
101 kPa, x1 = 0.4011 | 3.864 ± 0.17 | – | – | 2.589 ± 0.096
101 kPa, x1 = 0.5018 | 4.217 ± 0.2 | – | – | 2.791 ± 0.11
101 kPa, x1 = 0.5944 | 4.341 ± 0.21 | – | – | 2.904 ± 0.11
101 kPa, x1 = 0.7026 | 4.316 ± 0.2 | – | – | 2.903 ± 0.11
101 kPa, x1 = 0.7961 | 4.146 ± 0.19 | – | – | 2.899 ± 0.11
101 kPa, x1 = 0.9038 | 3.824 ± 0.17 | – | – | 2.589 ± 0.095
101.33 kPa, x1 = 0.0782 | 1.54 ± 0.08 | 1.39 ± 0.07 | 1.28 ± 0.06 | 1.19 ± 0.06
101.33 kPa, x1 = 0.1552 | 2.07 ± 0.1 | 1.84 ± 0.09 | 1.68 ± 0.08 | 1.54 ± 0.08
101.33 kPa, x1 = 0.2319 | 2.63 ± 0.13 | 2.3 ± 0.12 | 2.09 ± 0.11 | 1.89 ± 0.1
101.33 kPa, x1 = 0.3049 | 3.11 ± 0.16 | 2.71 ± 0.14 | 2.43 ± 0.12 | 2.19 ± 0.11
101.33 kPa, x1 = 0.3832 | 3.54 ± 0.18 | 3.06 ± 0.15 | 2.73 ± 0.14 | 2.45 ± 0.12
101.33 kPa, x1 = 0.4595 | 3.85 ± 0.19 | 3.32 ± 0.17 | 2.95 ± 0.15 | 2.65 ± 0.13
101.33 kPa, x1 = 0.5395 | 4.04 ± 0.2 | 3.52 ± 0.18 | 3.08 ± 0.16 | 2.81 ± 0.14
101.33 kPa, x1 = 0.6155 | 4.02 ± 0.2 | 3.5 ± 0.18 | 3.1 ± 0.16 | 2.77 ± 0.14
101.33 kPa, x1 = 0.6939 | 3.97 ± 0.2 | 3.49 ± 0.18 | 3.08 ± 0.16 | 2.75 ± 0.14
101.33 kPa, x1 = 0.7683 | 3.83 ± 0.19 | 3.4 ± 0.17 | 2.97 ± 0.15 | 2.67 ± 0.13
101.33 kPa, x1 = 0.8477 | 3.57 ± 0.18 | 3.1 ± 0.16 | 2.79 ± 0.14 | 2.53 ± 0.13
101.33 kPa, x1 = 0.9228 | 3.36 ± 0.17 | 2.94 ± 0.15 | 2.65 ± 0.13 | 2.4 ± 0.12

CC(=O)[O-].[Na+] + CC(=O)[O-].CC[n+]1ccn(C)c1
Conditions | viscosity [mPa·s]
298.15 K, 101 kPa, x1 = 0.0501 | 160.5 ± 11

CN1CCC[C@H]1c1cccnc1 + CC(=O)c1ccccc1
viscosity [mPa·s], 101 kPa
Conditions | x1 = 0.1332 | x1 = 0.2426 | x1 = 0.3782 | x1 = 0.4934 | x1 = 0.613 | x1 = 0.7431 | x1 = 0.8402
298.15 K | 1.872 ± 0.071 | 2.198 ± 0.081 | 2.537 ± 0.092 | 2.947 ± 0.11 | 3.238 ± 0.12 | 3.627 ± 0.13 | 3.736 ± 0.13
323.15 K | 1.162 ± 0.047 | 1.288 ± 0.051 | 1.453 ± 0.057 | 1.551 ± 0.06 | 1.743 ± 0.067 | 1.912 ± 0.072 | 1.962 ± 0.074
